Results from publication PMC9399028 (European Journal of Nuclear Medicine and Molecular Imaging, 2022).
Entries after “also recorded” stand apart in the source; their conditions may differ. Where two headings read alike, the source gives them in different places.

How the values were obtained:
Human recombinant MAO-B = target: T1, Human recombinant MAO-B (Homo sapiens, UniProt P27338); test: Saturation binding of radioligand to MAO-B microsomes
T1 construct: purchased Sigma M7441
T1 sequence (P27338 1-520): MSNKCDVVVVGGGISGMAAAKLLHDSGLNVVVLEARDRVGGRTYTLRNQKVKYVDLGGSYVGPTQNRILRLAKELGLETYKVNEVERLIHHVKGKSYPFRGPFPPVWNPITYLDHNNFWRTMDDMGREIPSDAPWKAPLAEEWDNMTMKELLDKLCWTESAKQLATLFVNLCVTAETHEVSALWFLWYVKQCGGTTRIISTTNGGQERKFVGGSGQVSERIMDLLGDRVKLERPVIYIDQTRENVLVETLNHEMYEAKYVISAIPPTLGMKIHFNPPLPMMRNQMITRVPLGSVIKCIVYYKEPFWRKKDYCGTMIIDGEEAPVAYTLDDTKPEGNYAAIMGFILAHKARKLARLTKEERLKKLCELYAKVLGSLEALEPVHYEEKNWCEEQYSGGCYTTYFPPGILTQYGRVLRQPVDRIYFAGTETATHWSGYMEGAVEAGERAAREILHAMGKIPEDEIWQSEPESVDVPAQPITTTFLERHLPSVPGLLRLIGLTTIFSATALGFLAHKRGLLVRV
Protocol: (§1) The dissociation constant (Kd) was determined by saturation binding, in which the total and non-specific binding of the radioligand was measured at various concentrations. Human recombinant MAO-A, MAO-B, and control microsomes were acquired from Sigma (M7316, M7441, and M7566, respectively). All microsome preparations were at a concentration of 5 mg protein/mL. The reaction mixture (250 μL) contained protein target and ^18F-radioligand, serially diluted in PBS, pH 7.4; assays were performed in PBS (0.01% bovine serum albumin [BSA]) in 96-well polypropylene microplates. […] . Filters were assayed for radioactivity in a Wizard 2480 automatic gamma-counter (Perkin Elmer).

Human recombinant MAO-A = target: T2, Human recombinant MAO-A (Homo sapiens, UniProt P21397); test: Saturation binding of radioligand to MAO-A microsomes
T2 construct: purchased Sigma M7316
T2 sequence (P21397 1-527): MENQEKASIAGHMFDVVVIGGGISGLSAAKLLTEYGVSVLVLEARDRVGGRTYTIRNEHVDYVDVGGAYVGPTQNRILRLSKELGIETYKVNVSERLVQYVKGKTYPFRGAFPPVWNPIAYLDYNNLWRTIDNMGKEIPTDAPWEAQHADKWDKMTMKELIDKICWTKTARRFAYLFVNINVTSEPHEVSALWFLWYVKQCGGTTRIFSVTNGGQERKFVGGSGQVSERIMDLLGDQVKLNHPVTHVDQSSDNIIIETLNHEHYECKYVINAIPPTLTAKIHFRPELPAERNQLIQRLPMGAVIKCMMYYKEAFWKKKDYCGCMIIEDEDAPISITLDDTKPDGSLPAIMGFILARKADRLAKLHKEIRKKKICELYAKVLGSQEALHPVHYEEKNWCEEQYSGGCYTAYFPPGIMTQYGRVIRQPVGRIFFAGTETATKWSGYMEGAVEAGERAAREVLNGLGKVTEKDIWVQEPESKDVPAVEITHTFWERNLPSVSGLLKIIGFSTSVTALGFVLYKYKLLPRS
Protocol: as §1

isolated human PHF = isolated human PHF (Homo sapiens, UniProt P10636); test: Saturation binding of radioligand to isolated PHF
Chain of isolated human PHF (P10636 623-695 limits assumed): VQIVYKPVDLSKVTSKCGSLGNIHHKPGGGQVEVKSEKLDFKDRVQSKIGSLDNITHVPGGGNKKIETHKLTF
Protocol: Purified, soluble PHF was isolated from AD brain tissue using a protocol modified from the procedure described by Jicha et al.. Briefly, homogenized AD cortex underwent high pressure batch–gas expansion using a Parr Cell disruption bomb and centrifuged at […]. […] Bound PHF was eluted with two column volumes of 3M potassium thiocyanate. Isolated PHF was analyzed in a tau MC-1 ELISA and a tau AT8 ELISA, which recognizes tau phosphorylated at both Ser 202 and Thr 205 [3].
as §1

[1] = test system: [^18F]flortaucipir binding to normal human brain (temporal cortex sections); test: [^18F]flortaucipir autoradiography competition binding assay with MAO-A and MAO-B inhibitors; details: for IC50: normal (tau NFT negative) human temporal cortex sections, 1.4 nM [^18F]flortaucipir, mild PBS wash, read-out: IC50, inhibition of [^18F]flortaucipir binding (autoradiography)
Protocol: After 60-min incubation at room temperature, PBS washes (4 × 2 min) were used to remove any unbound ligand. […] Signal intensity (counts/pixel) on each section was measured using Multi Gauge V3.0 Imaging software. Total binding was evaluated by nonlinear regression using GraphPad Prism v8 to determine IC50 values.

[2] = test system: frozen human brain slices from AD donors (PHF tau-rich) and non-AD control donors; test: [^18F]flortaucipir autoradiography, stringent vs mild wash conditions; format: binding
Protocol: Autoradiography was performed on frozen human brain slices from AD donors (N = 3, PHF tau-rich as determined by AT8 immunohistochemistry) and age-matched non-AD control donors (N = 6, devoid of tau NFTs and beta-amyloid neuritic plaques as determined by immunohistochemistry). Brains slices were obtained from the National Disease Research Interchange (Philadelphia, PA).

MAO-A = target: T3, MAO-A (Rattus norvegicus, UniProt P21396); test: In vivo PET imaging in rats with pargyline pre-treatment; details: for peak brain activity: at 2 min
T3 construct: Male wild-type Sprague-Dawley rats; from tissue; host or cells: brain of living wild-type Sprague-Dawley rats
T3 sequence (P21396 1-526): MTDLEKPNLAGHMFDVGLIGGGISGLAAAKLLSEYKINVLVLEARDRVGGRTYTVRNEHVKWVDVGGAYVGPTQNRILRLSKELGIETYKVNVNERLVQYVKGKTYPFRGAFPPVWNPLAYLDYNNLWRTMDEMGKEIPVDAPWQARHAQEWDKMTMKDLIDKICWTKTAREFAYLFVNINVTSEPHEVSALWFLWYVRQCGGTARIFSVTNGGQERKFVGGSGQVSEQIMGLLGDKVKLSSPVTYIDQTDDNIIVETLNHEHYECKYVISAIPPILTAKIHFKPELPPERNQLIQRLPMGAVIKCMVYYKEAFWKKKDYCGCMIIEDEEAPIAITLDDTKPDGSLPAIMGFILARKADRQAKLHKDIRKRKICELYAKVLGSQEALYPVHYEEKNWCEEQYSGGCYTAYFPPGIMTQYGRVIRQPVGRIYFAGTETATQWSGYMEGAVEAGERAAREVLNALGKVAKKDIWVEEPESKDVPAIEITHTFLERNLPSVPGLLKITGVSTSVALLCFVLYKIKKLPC
Protocol: All procedures in this study followed the guidelines of the Institutional Animal Care and Use Committee of the University of the Sciences, Philadelphia, PA. A Siemens Inveon Multimodality Scanner was used for micro-PET/computed tomography (CT) imaging. Male wild-type Sprague-Dawley rats (128 ± 58 g) were anesthetized with 3% isoflurane with oxygen. Rats were administered [^18F]fluoroethyl-harmol or [^18F]flortaucipir via tail vein injection (7.4-14.8MBq [200–400 μCi] in a total volume of 200 μL). For blocking studies, rats were pre-treated with pargyline (Sigma-Aldrich, 50 mg/kg i.p.) 30 min prior to scans; control rats were pre-treated with 0.9% saline injection (Hospira, i.p.). A short high-resolution CT scan was first conducted for anatomical registration, followed by a 120-min dynamic PET scan. PET images were generated for each minute of the acquisition time. Uptake of the tracers was determined by visually drawing regions of interest based on the fused PET/CT images, and corresponding activity values were determined using Inveon Research Workplace software. All values are represented as % injected dose per gram (ID/g). A total of 6 rats were studied (3 control, 3 pre-treated) for [^18F]fluoroethyl-harmol and 8 rats for [^18F]flortaucipir (4 control, 4 pre-treated).

MAO-B microsomes [3] = target: T4, MAO-B microsomes (Homo sapiens, UniProt P27338); test: LC-MS direct saturation binding to MAO-B microsomes
T4 sequence (P27338 1-520): T1 sequence (P27338 1-520)

MAO-B microsomes [4] = target: T4, MAO-B microsomes; test: Competition binding, displacement of safinamide from MAO-B microsomes (LC-MS); parameters: purchased Sigma M7441
Protocol: IC50 values for each compound were determined by competition binding. […] IC50 values were determined by nonlinear regression analysis using GraphPad Prism.

[5] = NSB defined as binding to control microsomes
[6] = NSB defined with 10 μM deprenyl

CNc1ccc(-c2ccc3cc(OC[C@H](O)CF)ccc3n2)cn1 [[^18F]THK5351]
Kd (Human recombinant MAO-B; [5]): 37 ± 1.8 nM | Kd (Human recombinant MAO-B; NSB defined with 1 μM THK5351): 40 ± 0.7 nM | Kd (Human recombinant MAO-B; [6]): 39 ± 1.1 nM

CNc1ccc(-c2ccc3cc(OC[C@H](O)C[18F])ccc3n2)cn1 [[^18F]THK5351]
Bmax (Human recombinant MAO-B; [5]): 49 ± 6.3 pmol ligand/mg total protein | Bmax (Human recombinant MAO-B; NSB defined with 1 μM THK5351): 54 ± 3.4 pmol ligand/mg total protein | Bmax (Human recombinant MAO-B; [6]): 51 ± 5.5 pmol ligand/mg total protein

Fc1ccc(-c2ccc3c(c2)[nH]c2ccncc23)cn1 [[^18F]flortaucipir]
Kd (Human recombinant MAO-A): 2 nM | Kd (isolated human PHF): 0.57 nM

[18F]c1ccc(-c2ccc3c(c2)[nH]c2ccncc23)cn1 [[^18F]flortaucipir]
specific binding to MAO-B (radioligand saturation) (Human recombinant MAO-B; MAO-B microsomes vs control microsomes or 10 μM deprenyl): no specific binding; also recorded: no significant binding | fraction of [^18F]flortaucipir bound to normal brain sections that was displaced ([1]; mild wash conditions, remainder non-specific and non-saturable): approximately 50% | saturability of autoradiography signal on AD tissue [2]: saturable | saturability of off-target binding, mild wash ([2]; mild wash, AD and control tissue, 1 μM flortaucipir): only partially saturable | [^18F]flortaucipir binding on tissue, mild wash ([2]; mild washing (PBS), frontal cortex and striatum): observed on both AD and control tissues | [^18F]flortaucipir binding on tissue, stringent wash ([2]; stringent washing (30% and 70% EtOH), frontal cortex and striatum): observed only on tau NFT-rich AD tissue, not on control tissue | effect of pargyline pre-treatment on brain uptake and clearance (MAO-A; rats, control vs pargyline 50 mg/kg): nearly identical brain uptake with rapid clearance in both the control and pargyline groups

Cc1nccc2c1[nH]c1cc(OCC[18F])ccc12 [[^18F]fluoroethyl-harmol]
brain activity at 110 min (MAO-A; control rats, 110 min): 2.1 %ID/g | peak brain activity (MAO-A; control rats, i.v.): 2.3 %ID/g | peak brain activity (MAO-A; pargyline 50 mg/kg i.p. pre-treated rats): 2.4 %ID/g | brain activity after washout (MAO-A; pargyline 50 mg/kg i.p. pre-treated rats, by 20 min): 1.0 %ID/g

Fc1ccc(-c2ccc3c(c2)[nH]c2ccncc23)cn1 [flortaucipir]
specific binding to MAO-B (LC-MS saturation) (MAO-B microsomes [3]; higher flortaucipir concentrations): no specific binding was observed | IC50 [1]: 270 nM | IC50 (MAO-B microsomes [4]): 1300 nM

Cc1nccc2c1[nH]c1cc(OCCF)ccc12 [fluoroethyl-harmol]
IC50 [1]: 780 nM | IC50 (MAO-B microsomes [4]; read-out: IC50, displacement of safinamide, 30 nM safinamide, 10 μg MAO-B microsomes): > 10000 nM

C[C@H](NCc1ccc(OCc2cccc(F)c2)cc1)C(N)=O [safinamide]
Bmax (MAO-B microsomes [3]; LC-MS, NSB = control microsome): 446 pmol ligand/mg total protein | IC50 [1]: ≥ 10000 nM
